This note sets out measurements from article PMC4692482, “Structure and Stability of the Dimeric Triosephosphate Isomerase from the Thermophilic Archaeon Thermoplasma acidophilum” (PLoS ONE, 2015).

The target of the experiment is T1, TaTPI (Thermoplasma acidophilum, UniProt Q9HLB6).
T1 construct: gene tpiA; full length, 216 residues, C-terminal His6-tag (pET-28a(+)), expressed in E. coli Rosetta 2(DE3)pLysS; 24,671 Da monomer; homodimer
As to the kind of experiment: X-ray crystallography ([…] A). Particulars: 20 mM G3P incubated with apo protein 4 h at 4 C; pH 8.5; active site (Lys9, His89, Glu137); substrate analogue. Type of experiment: binding.

T1 sequence (Q9HLB6 whole entry): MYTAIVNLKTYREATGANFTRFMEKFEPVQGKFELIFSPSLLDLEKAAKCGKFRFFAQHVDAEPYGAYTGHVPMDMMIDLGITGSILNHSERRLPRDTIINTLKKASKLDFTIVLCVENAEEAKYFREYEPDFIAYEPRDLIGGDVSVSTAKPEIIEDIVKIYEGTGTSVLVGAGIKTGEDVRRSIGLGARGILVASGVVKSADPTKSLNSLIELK

For the compound `O=P(O)(O)OC[C@H](O)CO` [G3P, glycerol-3-phosphate], the “X-ray crystallography (2.17 A)” value is “G3P is well positioned at the active site of TaTPI with functionally conserved residues”.
